The test concerns the target Perforin-1 (Mus musculus) (UniProt P10820). Description: Reversible binding affinity to recombinant mouse perforin by SPR analysis.

The source made the active and inactive calls. The rule behind the calls is not given here.

Sequence of Perforin-1 (Mus musculus) (P10820 whole entry, looked up): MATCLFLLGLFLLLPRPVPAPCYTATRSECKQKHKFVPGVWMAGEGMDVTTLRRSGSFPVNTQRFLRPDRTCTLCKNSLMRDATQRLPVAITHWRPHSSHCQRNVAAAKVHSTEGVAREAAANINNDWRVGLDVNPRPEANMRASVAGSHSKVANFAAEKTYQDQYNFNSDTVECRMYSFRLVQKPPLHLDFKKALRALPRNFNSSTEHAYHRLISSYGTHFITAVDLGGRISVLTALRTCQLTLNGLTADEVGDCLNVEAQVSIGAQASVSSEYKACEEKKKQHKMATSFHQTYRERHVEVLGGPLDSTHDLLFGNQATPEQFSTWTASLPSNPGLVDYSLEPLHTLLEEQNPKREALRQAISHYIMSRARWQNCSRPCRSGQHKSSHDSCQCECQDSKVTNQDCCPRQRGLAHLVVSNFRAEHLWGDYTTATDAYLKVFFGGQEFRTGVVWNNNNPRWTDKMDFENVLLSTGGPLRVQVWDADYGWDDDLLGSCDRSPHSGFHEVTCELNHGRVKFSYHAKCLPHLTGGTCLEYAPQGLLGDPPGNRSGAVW

Consider `O=C1NC(=S)[N-]/C1=C/c1ccc(-c2ccc3c(c2)CCNC3=O)s1.[Na+]`, for which the outcome was Active.

`CC1c2cc(-c3ccc(/C=C4/[N-]C(=S)NC4=O)s3)ccc2C(=O)N1C.[Na+]` (configuration not stated): the outcome was Active.

The values are drawn from ChEMBL document CHEMBL3102825, “Exploration of a series of 5-arylidene-2-thioxoimidazolidin-4-ones as inhibitors of the cytolytic protein perforin” (J Med Chem, 2013).
